# According to article PMC7155171, “Probing the Open Global Health Chemical Diversity Library for Multistage-Active Starting Points for Next-Generation Antimalarials” (ACS Infectious Diseases, 2020):
# Tests used:
# [1] = HepG2 cytotoxicity screening (CellTiter-Glo); details: human, uninfected HepG2-A16-CD81 (EGFP) hepatocytes
# [2] = tested on: HepG2-A16-CD81 hepatocytes; test: HepG2 cytotoxicity screening (CellTiter-Glo); details: for HepG2 cytotoxicity 12pt dose response: Maximum inhibition (%): 12pt dose response
# [3] = tested on: P. berghei liver stage (PbLuc); test: P. berghei luciferase liver stage (PbLuc) assay in HepG2-A16-CD81 hepatocytes; assay type: cell-based, Plasmodium berghei; details: Plasmodium berghei; for IC50: HepG2-A16-CD81, 12pt dose response, read-out: PbLuc 12pt dose response: IC50; for Emax: HepG2-A16-CD81, 48 h, 12pt dose response, maximum inhibition
# [4] = biological target: recombinant firefly luciferase (Photinus pyralis, UniProt P08659); test: biochemical; details: dose response; for Emax: maximum inhibition, read-out: rLuc inhibition dose response: Maximum inhibition (%); for IC50: read-out: rLuc inhibition dose response: IC50
# Chain of recombinant firefly luciferase (P08659 whole entry): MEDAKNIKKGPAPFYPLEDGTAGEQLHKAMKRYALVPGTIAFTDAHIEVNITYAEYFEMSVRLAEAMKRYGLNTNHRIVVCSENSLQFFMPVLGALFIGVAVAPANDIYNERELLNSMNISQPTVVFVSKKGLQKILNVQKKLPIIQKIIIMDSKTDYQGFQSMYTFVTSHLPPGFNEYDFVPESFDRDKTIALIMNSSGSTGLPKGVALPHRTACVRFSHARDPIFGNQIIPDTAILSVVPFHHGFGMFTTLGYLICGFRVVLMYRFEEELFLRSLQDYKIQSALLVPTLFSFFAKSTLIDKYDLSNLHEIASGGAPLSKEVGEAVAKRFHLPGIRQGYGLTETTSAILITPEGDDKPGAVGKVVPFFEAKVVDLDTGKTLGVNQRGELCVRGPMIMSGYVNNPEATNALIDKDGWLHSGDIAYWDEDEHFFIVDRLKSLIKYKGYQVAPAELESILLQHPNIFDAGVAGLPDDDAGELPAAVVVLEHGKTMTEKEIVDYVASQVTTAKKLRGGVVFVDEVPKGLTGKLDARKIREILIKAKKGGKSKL
SMILES,IC50 [1] [µM],HepG2 Cytotoxicity primary screen (2uM): % Inhibition [2] [%],HepG2 cytotoxicity 12pt dose response: Maximum inhibition (%) [2] [%],IC50 [3] [µM],Emax [3] [%],Emax [4] [%],IC50 [4] [µM],inhibition at 2 µM [1] [%]
CC(C)(C)NC(=O)N1CCC(Oc2ccc(C(F)(F)F)cn2)CC1 [UCSD-0787817],> 25,-4.73,16.5,11.4,93.5,13,> 25,–
CCOc1ccc(S(=O)(=O)Nc2cnc(OC)nc2OC)cc1 [UCSD-0788088],> 25,–,61,5.14,71.2,-1.04,> 25,4.64
COc1cccc(CN2CCc3nc(C(=O)NCC(C)C)sc3CC2)c1 [UCSD-0790206],> 25,-10.23,35.9,9.85,–,32,> 25,–
O=C([C@H]1C[C@@H]2CCN(c3cccc(F)c3)C[C@H]2O1)N1CCCC1 [UCSD-0792262],> 25,4.38,–,10.3,93.8,28.4,> 25,–
O=C(NCCCN1CCCCC1)c1ccc(-n2ccc3ccccc32)s1 [UCSD-0795001],22.1,0.00,66.1,11.6,116,-4.22,> 25,–
CCS(=O)(=O)N1CCc2ccc(NC(=O)Nc3cccc(SC)c3)cc21 [UCSD-0795016],3.39,–,54,1.38,98.9,12.2,> 25,0
Cc1[nH]/c(=N\C(=O)c2csc(NCC(C)C)n2)sc1C [UCSD-0795190],> 25,–,42.7,8.85,84.4,77,9.64,0
CC(=O)Nc1ccc(-n2ccc3nc(N4CCCC4)ncc3c2=O)cc1 [UCSD-0795240],> 25,–,8.78,4.11,100,-8.22,> 25,0
Cc1ccc(N(CC(=O)c2ccc(Br)cc2)C2=NCCCCC2)cc1 [UCSD-0795313],> 25,0.00,28.6,13.6,93.4,7.66,> 25,–
COCCCNC1N=C(n2nc(C)cc2C)Nc2sc3c(c21)CCCC3 (centres unmarked) [UCSD-0796603],> 25,2.66,-1.93,4.36,98.7,17.3,> 25,–
CC(=O)Nc1ncc(S(=O)(=O)Nc2ccc3c(c2)OCCO3)s1 [UCSD-0796805],> 25,-2.36,4.04,9.83,92,52.2,> 25,–
CCC1=NC(SCC(=O)c2ccccc2)c2cc(CC)sc2N1 (centres unmarked) [UCSD-0796974],> 25,–,3.82,> 25,42.1,7.45,> 25,3.26
Cc1cccc(Nc2cc(C3CCCN(CC(N)=O)C3)ccn2)n1 (centres unmarked) [UCSD-0798772],> 25,–,3.72,< 0.000141,89.4,–,> 8.33,1.68
CCOc1ccc(CN2CCCC(c3cc4ncccc4[nH]3)C2)cc1 (centres unmarked) [UCSD-0798855],> 25,–,11.6,5.76,90.3,20.7,> 25,9.74
Fc1ccc(CN2CCCC(c3cc4ncccc4[nH]3)C2)cc1 (centres unmarked) [UCSD-0798856],> 25,–,-0.046,8.45,78.4,23.6,> 25,12
Cn1cncc1CN1CCCC1c1cncc(Oc2ccc(Cl)cc2)n1 (centres unmarked) [UCSD-0800730],> 25,0.83,38.2,12.9,92.6,3.17,> 25,–
Cc1ncc(CN2CCOC(c3ccc(-c4ccccc4F)cn3)C2)s1 (centres unmarked) [UCSD-0800928],> 25,-6.23,36.5,11.1,85.7,19.3,> 25,–

SMILES,IC50 [1] [µM],HepG2 Cytotoxicity primary screen (2uM): % Inhibition [2] [%],HepG2 cytotoxicity 12pt dose response: Maximum inhibition (%) [2] [%],IC50 [3] [µM],Emax [3] [%],Emax [4] [%],IC50 [4] [µM],inhibition at 2 µM [1] [%]
Cc1ccc(Nc2nccc(C3CCN(CC(N)=O)C3)n2)nc1 (centres unmarked) [UCSD-0800962],> 25,–,15.1,0.00289,–,81.5,0.0401,–
COc1cc(C)c(CN2CCc3nc4ccsc4c(=O)n3CC2)cc1C [UCSD-0801369],> 25,–,25.1,8.88,95.5,5.88,> 25,0
O=c1c2sccc2nc2n1CCN(Cc1ccccc1C(F)(F)F)CC2 [UCSD-0801403],> 25,–,19.7,6.77,95.7,18.4,> 25,0
CSc1ccc(CN2C[C@@H]3CC[C@@](O)(c4ccc(C)cn4)[C@@H]3C2)cc1 [UCSD-0801744],> 25,–,9.86,23,66.8,38.3,> 25,2.45
Clc1ccc(-c2ccc(C3CNCCO3)nc2)cc1 (centres unmarked) [UCSD-0802213],> 25,–,-1.02,< 0.000141,–,95.9,0.0623,18.1
COc1ccc(-c2ccc(C3CNCCO3)nc2)cc1 (centres unmarked) [UCSD-0802458],> 50,–,-13.4,< 0.000141,94,89.6,0.0276,23.7
Cc1ccc(-c2ccc(C3CNCCO3)nc2)cc1 (centres unmarked) [UCSD-0802459],> 50,–,48.6,< 0.000141,98.6,88.3,0.00428,25.3
Cc1cc(-c2cnc(NCc3cccnc3)nc2C(C)(C)C)on1 [UCSD-0802583],> 25,-8.43,45.3,10.1,86.4,6.14,> 25,–
CC(C)(C)OC(=O)N1CCCN(Cc2ccon2)c2ccccc21 [UCSD-0805052],> 25,–,13.5,8.56,93.5,18.4,> 25,10.4
CCN1CC(CN(C)c2cc(C)nc(N)n2)Oc2ccccc21 (centres unmarked) [UCSD-0806866],20.6,–,73.7,5.15,93.5,15.4,> 25,-3.08
COC(=O)CSCc1noc(-c2ccc(C)cc2)n1 [UCSD-0807935],> 25,–,3.73,0.0335,77.1,62.8,> 25,-4.01
N#Cc1c(Cl)nsc1NCc1cccnc1OCC(F)(F)F [UCSD-0808444],> 25,4.29,-0.683,14.9,69.5,43.9,> 25,–
CCNc1ccnc(CN2CCCC2C(=O)Nc2nccs2)c1 (centres unmarked) [UCSD-0809356],> 25,1.30,2.09,4.46,–,21.2,> 25,–
CC(C(=O)Nc1sccc1C(N)=O)N(C)CCOc1ccccc1 (centres unmarked) [UCSD-0809872],> 25,–,7.13,0.787,95.7,17.7,> 50,5.59
CC(C)(C)n1ncc2c1CCCC2NCc1ccc2c(c1)OCCO2 (centres unmarked) [UCSD-0811309],> 25,–,2.92,8.69,87,85,15,-4.43
NC(=O)c1ccc(N2CCCCC2)c(NC(=O)c2ccc(F)cc2F)c1 [UCSD-0811362],> 25,–,5.59,8.87,81,19.1,> 25,2.8
